Data set [1] relates to contraction of excised bronchi of guinea pigs by histamine. Nature of the data set: Inhibition of contraction of excised bronchi of guinea pigs by histamine. Conditions: 10^-5 M.
Data set [2] deals with rats. Nature of the data set: Toxicity to rats by oral administration. Type of data set: in vivo. As to conditions: 1000 mg/kg by oral administration.
For data set [3], the system named is excised bronchi of guinea pigs by the action of leukotriene D4. Kind of data set: Inhibitory activity on leukotrienes (contraction induced by leukotriene D4 in excised guinea pig bronchi). As to conditions: Conc. 10^-5 M, treatment before 10 minutes. As to the method:
The compounds were evaluated for inhibitory activity on leukotrienes in the following test.
In this test, contraction was induced in excised bronchi of guinea pigs by the action of leukotriene D4, and inhibitory action of the present compounds after treatment before 10 minutes was measured and recorded via a transducer.

Data set [4] relates to PGF2α. Kind of data set: Inhibition of contraction of excised bronchi of guinea pigs by PGF2α. As to conditions: 10^-5 M.
For data set [5], the system named is SRS-A. Nature of the data set: Inhibitory activity on biosynthesis and release of chemical mediator (SRS-A), bioassay using excised ileum. Details: species or system guinea pigs. As to conditions: Conc. 10^-5 M. As to the method:
The compounds were evaluated for inhibitory activity on biosynthesis and release of a chemical mediator according to the method described by S. Watanabe-Kohno et al [J. Immunol., 125, 946 (1980)] and J. Augastein et al [Nature, 245, 215 (1973)]. In this test, SRS-A was used as a chemical mediator.
The chemical mediator contained in the reaction solution was determined according to bioassay using excised ileum of guinea pigs.
Percent Inhibition (%)=(1-A'/A)×100
A'=contraction level by the reaction solution treated with test compound
A=contraction level by the control reaction solution

Data on nine compounds can be found in US4897406A, “Rhodanine derivatives and pharmaceutical compositions” (Nisshin Flour Milling Co., Ltd., priority 1987, dated 1990).

Consider `COc1ccc(CCC(C)=C2SC(=S)NC2=O)cc1OC` (single isomer, unassigned) [Isomer A of Example 12, 5-[3-(3,4-Dimethoxyphenyl)-1-methylpropylidene]-4-oxo-2-thioxothiazolidine], for which, in data set [1], the “inhibitory activity on contraction by histamine” value was 60-90%. Also, in data set [2], the mortality result was “no mortality was observed”. Further, the “Percent Inhibition (inhibitory activity on leukotrienes)” value in data set [3] came to 100.0%. Moreover, the “inhibitory activity on contraction by PGF2α” value (“inhibitory activity … by PGF2α” for short) in data set [4] is reported as 60-90%. Besides, the “Percent Inhibition (biosynthesis and release of chemical mediator)” value in data set [5] was determined as 76.2%.
Consider `CCCC(C=Cc1ccc(C(=O)O)cc1)=C1SC(=S)NC1=O` (single isomer, unassigned) [Isomer A of Example 17, 4-[3-(4-Oxo-2-thioxo-5-thiazolidinylidene)-1-hexen-1-yl]benzoic acid], for which the “Percent Inhibition (inhibitory activity on leukotrienes)” value in data set [3] was found to be 84.7%.
For the compound `COc1ccc(C=CC(C)=C2SC(=S)NC2=O)cc1OC` (single isomer, unassigned) [Isomer B of Example 1], in data set [1], the “inhibitory activity on contraction by histamine” value is 60-90%. The “Percent Inhibition (inhibitory activity on leukotrienes)” value in data set [3] was found to be 82.4%. In addition, the “inhibitory activity … by PGF2α” value in data set [4] is recorded as 60-90%. Also, in data set [5], the “Percent Inhibition (biosynthesis and release of chemical mediator)” value came out at 58.0%.
Regarding `COc1ccc(CCC(C)=C2SC(=S)NC2=O)cc1OC` (single isomer, unassigned) [Isomer B of Example 12, 5-[3-(3,4-Dimethoxyphenyl)-1-methylpropylidene]-4-oxo-2-thioxothiazolidine], in data set [1], the “inhibitory activity on contraction by histamine” value was 60-90%. Further, the mortality entry in data set [2] is “no mortality was observed”. The “Percent Inhibition (inhibitory activity on leukotrienes)” value in data set [3] is on record as 97.9%. Moreover, in data set [4], the “inhibitory activity … by PGF2α” value is 60-90%. In addition, the “Percent Inhibition (biosynthesis and release of chemical mediator)” value in data set [5] was 70.6%.
In the case of `CC(C=Cc1cccs1)=C1SC(=S)NC1=O` (single isomer, unassigned) [Isomer B of Example 15, 5-[3-(2-Thienyl)-1-methyl-2-propenylidene]-4-oxo-2-thioxothiazolidine], the “inhibitory activity on contraction by histamine” value in data set [1] is listed as 60-90%. Further, the “inhibitory activity … by PGF2α” value in data set [4] is 60-90%.
With `CCCC(C=Cc1ccc(C(=O)O)cc1)=C1SC(=S)NC1=O` (single isomer, unassigned) [Isomer B of Example 17, 4-[3-(4-Oxo-2-thioxo-5-thiazolidinylidene)-1-hexen-1-yl]benzoic acid], in data set [3], the “Percent Inhibition (inhibitory activity on leukotrienes)” value is 79.8%.
Same read-out and setting: the same measure for `COc1ccc(C=CC(CCCC(=O)O)=C2SC(=S)NC2=O)cc1OC` (single isomer, unassigned) [Isomer B of Example 19, 7-(3,4-dimethoxyphenyl)-5-(4-oxo-2-thioxo-5-thiazolidinilydene)-6-heptenoic acid]: 85.1%.
For `CCOC(=O)CCC(C=Cc1ccc(OC)c(OC)c1)=C1SC(=S)NC1=O` [Compound of Example 14, Ethyl 6-(3,4-dimethoxyphenyl)-4-(4-oxo-2-thioxo-5-thiazolidinylidene)-5-hexenoate], the “inhibitory activity on contraction by histamine” value in data set [1] is listed as 60-90%. In data set [3], the “Percent Inhibition (inhibitory activity on leukotrienes)” value came out at 98.1%. Moreover, in data set [4], the “inhibitory activity … by PGF2α” value was 60-90%.
Regarding `CCOC(=O)CCCC(C=Cc1ccc(OC)c(OC)c1)=C1SC(=S)NC1=O` [Ethyl ester compound of Example 19, ethyl 7(3,4-dimethoxyphenyl)-5-(4-oxo-2-thioxo-5-thiazolidinilydene)-6-heptenoate], the “Percent Inhibition (inhibitory activity on leukotrienes)” value in data set [3] stood at 90.5%.
